Measured values published in PMC12196455, “Effect of Tegoprazan on Tacrolimus and Mycophenolate Levels in Kidney Transplant Recipients: A Randomized Controlled Study Using a Smart Trial Platform” (Pharmaceuticals, 2025).

Assays:
[1] = Mycophenolate (mycophenolic acid) trough level (12 h post-dose, PETINIA immunoassay) in the randomized trial of tegoprazan vs pantoprazole; assay type: in vivo, human (kidney transplant recipients); details: for Mycophenolate trough level: mean ± SD
Source text: (§1) This study was a prospective, open-label, randomized controlled trial conducted on KTRs receiving tacrolimus, mycophenolate, and steroids. This study was registered at the Clinical Research Information Service (CRIS), Republic of Korea (Registration No. KCT 0010481, registration date: 20 May 2025). Data analysis took place at Kyungpook National University Hospital, Republic of Korea, from August 2022 to May 2023. The trial adhered to the approval guidelines of the Institutional Review Board of Kyungpook National University Hospital (IRB No. 2022-02-013, approval date: 31 March 2022).
(§2) Patients were randomly assigned to either the P-CAB (tegoprazan 50 mg) group or the PPI (pantoprazole 20 mg) group. Enrolled KTRs were scheduled for four visits at baseline, 4, 8, and 12 weeks post-randomization. The dosage of immunosuppressants remained unchanged throughout the 12-week study period. Blood tests, including measurements of immunosuppressant trough levels, serum creatinine levels, estimated glomerular filtration rate (eGFR), and vital signs, were conducted at each visit.
(§3) The primary outcome was to compare changes in drug concentrations of tacrolimus and mycophenolate following the administration of tegoprazan in KTRs.
(§4) Trough levels of tacrolimus and mycophenolate were measured at 12 h post-dose, following standard clinical practice for therapeutic drug monitoring in transplant recipients. Blood samples were collected at scheduled morning visits, and the 12 h interval was confirmed using electronic pillbox adherence data or patient interviews. Tacrolimus concentrations were measured using the Dimension® TAC Flex® reagent cartridge (Siemens Healthcare Diagnostics Inc., Newark, NJ, USA) on the Siemens Dimension® Integrated Chemistry System, employing a homogeneous chemiluminescent immunoassay (CLIA) method. Mycophenolic acid concentrations were measured using the Dimension® MPA Flex® reagent cartridge (Siemens Healthcare Diagnostics Inc., Newark, USA) on the same system, based on a particle-enhanced turbidimetric inhibition immunoassay (PETINIA) method. All assays were conducted in the Department of Laboratory Medicine at the study hospital.

[2] = Time in therapeutic range (TTR) analysis of tacrolimus and mycophenolate; assay type: in vivo, human (kidney transplant recipients); details: across all visits; result in words
Procedure: Continuous variables were expressed as mean ± standard deviation, while categorical variables were presented as numbers and percentages. For normally distributed data, t-tests were utilized; for non-normally distributed data, the Mann–Whitney U test was applied. Intragroup variations between baseline and 12 weeks were analyzed using paired t-tests. Differences in the frequency of transplant outcomes were assessed using the χ^2 test or Fisher’s exact test. Differences in GI symptom questionnaire scores, assessed via e-diary surveys, were analyzed using t-tests or the Mann–Whitney U test, as appropriate. We conducted a TTR analysis for both tacrolimus and mycophenolate to evaluate the potential effects of tegoprazan on immunosuppressant stability. The predefined therapeutic range was set at […] for tacrolimus and at 1–3.5 µg/mL for mycophenolate. TTR was calculated as the proportion of time each drug level remained within the therapeutic window across the study period. All statistical analyses were performed using IBM SPSS Statistics 25 for Windows, […]. A p-value of <0.05 was considered statistically significant.

[3] = GI symptom questionnaires (GERD-HRQL, RDQ) via electronic diary app; assay type: in vivo, human (kidney transplant recipients); set-up: key to GERD-HRQL score: sum of 10 items each scored 0-5; higher = poorer quality of life; details: mean ± SD
Procedure: Changes in GI symptoms were measured and recorded using a self-developed electronic diary app installed on participants’ mobile phones. This app facilitated the assessment of GI symptoms through the Gastroesophageal Reflux Disease–Health-Related Quality of Life (GERD-HRQL) and Reflux Disease Questionnaire (RDQ). The GERD-HRQL scale comprises 10 items, addressing both GI symptoms and the patient’s overall condition. Each item is scored on a scale from 0 to 5, with higher scores indicating a poorer quality of life. The RDQ is a 6-item self-administered questionnaire designed to evaluate the severity and frequency of heartburn sensation, gastric acid regurgitation, and dyspepsia.
The secondary outcome included evaluating transplant outcomes and GI symptoms using questionnaires. The transplant outcomes assessed were changes in eGFR, biopsy-proven acute rejection (BPAR), allograft loss, and de novo DSA during the study period. De novo DSA was defined as the new appearance of antibodies against mismatched donor human leukocyte antigen (HLA) not present at baseline.

[4] = Tacrolimus blood trough level (12 h post-dose, chemiluminescent immunoassay) in the randomized trial of tegoprazan vs pantoprazole; assay type: in vivo, human (kidney transplant recipients); details: for Tacrolimus trough level: mean ± SD
Source text: as §1, §2, §3, §4

[5] = set-up: method as in PMID 34246485; details: result in words; cited from earlier work
[6] = Transplant outcomes (eGFR, de novo DSA, BPAR, allograft loss); assay type: in vivo, human (kidney transplant recipients); details: for eGFR: mean ± SD; for Allograft Loss / BPAR: during the 12-week study period
Procedure: Patients were randomly assigned to either the P-CAB (tegoprazan 50 mg) group or the PPI (pantoprazole 20 mg) group. Enrolled KTRs were scheduled for four visits at baseline, 4, 8, and 12 weeks post-randomization. The dosage of immunosuppressants remained unchanged throughout the 12-week study period. Blood tests, including measurements of immunosuppressant trough levels, serum creatinine levels, estimated glomerular filtration rate (eGFR), and vital signs, were conducted at each visit. The collected data included patient demographics such as gender, age, height, weight, blood tacrolimus, mycophenolate concentrations, kidney function, liver function tests, allograft loss, and acute rejection episodes. We collected DSA information. DSA was identified using the Luminex single-antigen assay (LSA). […] The secondary outcome included evaluating transplant outcomes and GI symptoms using questionnaires. The transplant outcomes assessed were changes in eGFR, biopsy-proven acute rejection (BPAR), allograft loss, and de novo DSA during the study period. De novo DSA was defined as the new appearance of antibodies against mismatched donor human leukocyte antigen (HLA) not present at baseline.

Adverse event monitoring = assay type: in vivo, human (kidney transplant recipients); details: 12 weeks; for Overall incidence of AEs: p = 0.032 between groups
Procedure: Safety evaluations were conducted through comprehensive monitoring, including physical examinations, clinical laboratory tests, vital signs, and the documentation of adverse events (AEs). Participants were encouraged to voluntarily report AEs regularly throughout the study.

[7] = result in words, cited from earlier work
[8] = result in words, cited from earlier work; remark: listed apart in the source
[9] = P-CAB group (tegoprazan 50 mg, n = 26), Baseline
[10] = P-CAB group (tegoprazan 50 mg, n = 26), Week 4
[11] = P-CAB group (tegoprazan 50 mg, n = 26), Week 8
[12] = P-CAB group (tegoprazan 50 mg, n = 26), Week 12
[13] = PPI group (pantoprazole 20 mg, n = 25), Baseline
[14] = PPI group (pantoprazole 20 mg, n = 25), Week 4
[15] = PPI group (pantoprazole 20 mg, n = 25), Week 8
[16] = PPI group (pantoprazole 20 mg, n = 25), Week 12
[17] = Baseline, higher score = poorer quality of life
[18] = 12-week follow-up in KTRs, result in words

## COc1c(C)c2c(c(O)c1C/C=C(\C)CCC(=O)O)C(=O)OC2 [Mycophenolate, mycophenolate]
[1]; [9]
  Mycophenolate trough level: 2.3 ± 1.4 µg/mL
[1]; [10]
  Mycophenolate trough level: 2.5 ± 1.1 µg/mL
[1]; [11]
  Mycophenolate trough level: 2.8 ± 1.8 µg/mL
[1]; [12]
  Mycophenolate trough level: 2.7 ± 1.4 µg/mL
[1]; [13]
  Mycophenolate trough level: 2.6 ± 1.3 µg/mL
[1]; [14]
  Mycophenolate trough level: 2.7 ± 1.1 µg/mL
[1]; [15]
  Mycophenolate trough level: 2.7 ± 2.4 µg/mL
[1]; [16]
  Mycophenolate trough level: 2.6 ± 1.4 µg/mL
[2]
  Time in therapeutic range (TTR), P-CAB vs PPI group: comparable between the two groups

## Cc1nc2cc(C(=O)N(C)C)cc(O[C@H]3CCOc4cc(F)cc(F)c43)c2[nH]1 [P-CAB, tegoprazan]
[3]; Baseline
  RDQ score: 4.7 ± 4.7
[3]; [17]
  GERD-HRQL score: 4.9 ± 4.3
[3]; Week 4
  GERD-HRQL score: 0.9 ± 1.4
  RDQ score: 1.0 ± 2.1
[3]; Week 8
  GERD-HRQL score: 0.7 ± 1.0
  RDQ score: 0.6 ± 1.2
[3]; Week 12
  GERD-HRQL score: 0.7 ± 1.6
  RDQ score: 0.7 ± 1.9
[4]; [18]
  Effect on blood trough level of tacrolimus: does not alter
[5]
  Effect of food intake on pharmacokinetic and pharmacodynamic properties: unaffected by food intake
[6]; Baseline
  eGFR: 62.8 ± 17.1 mL/min/1.73 m^2
[6]; Week 4
  eGFR: 61.8 ± 13.0 mL/min/1.73 m^2
[6]; Week 8
  eGFR: 60.6 ± 12.8 mL/min/1.73 m^2
[6]; Week 12
  eGFR: 63.5 ± 16.5 mL/min/1.73 m^2
[6]
  Allograft Loss: 0 number
  BPAR: 0 number
[1]; [18]
  Effect on blood trough level of mycophenolate: does not alter
Adverse event monitoring
  AE: Abdominal discomfort: 3 (11.5) number (%)
  AE: Arthralgia: 1 (3.8) number (%)
  AE: Constipation: 2 (7.7) number (%)
  AE: Diarrhea: 5 (19.2) number (%)
  AE: Headache: 0 (0.0) number (%)
  AE: Hypertension: 4 (15.4) number (%)
  AE: Hypoglycemia: 1 (3.8) number (%)
  AE: Myalgia: 0 (0.0) number (%)
  AE: Nausea, vomiting: 3 (11.5) number (%)
  AE: Productive cough, sputum: 4 (15.4) number (%)
  AE: Pyrexia: 0 (0.0) number (%)
  AE: Toothache: 0 (0.0) number (%)
  AE: Upper respiratory tract infection: 2 (7.7) number (%)
  AE: Urinary tract infection: 0 (0.0) number (%)
  AE: Vertigo: 0 (0.0) number (%)
  Participants with AEs: 15 (57.7) number (%)
  Participants with SAEs: 2 (7.7) number (%)
  Withdrawal due to AEs: 0 (0.0) number (%)
  Overall incidence of AEs: 57.7%
Adverse event monitoring; none related to the study drug
  Cases of serious adverse events (SAEs): two
Adverse event monitoring; human, in vivo
  AE: COVID-19: 0 (0.0) number (%)

## COc1ccnc(C[S+]([O-])c2nc3ccc(OC(F)F)cc3[nH]2)c1OC (stereo not shown) [PPI, pantoprazole]
[3]; Baseline
  RDQ score: 3.2 ± 3.3
[3]; [17]
  GERD-HRQL score: 2.8 ± 2.3
[3]; Week 4
  GERD-HRQL score: 0.7 ± 1.2
  RDQ score: 0.3 ± 0.9
[3]; Week 8
  GERD-HRQL score: 0.9 ± 1.8
  RDQ score: 0.4 ± 1.0
[3]; Week 12
  GERD-HRQL score: 0.5 ± 1.1
  RDQ score: 0.7 ± 2.0
[6]; Baseline
  eGFR: 57.7 ± 14.9 mL/min/1.73 m^2
[6]; Week 4
  eGFR: 60.1 ± 14.8 mL/min/1.73 m^2
[6]; Week 8
  eGFR: 63.6 ± 14.1 mL/min/1.73 m^2
[6]; Week 12
  eGFR: 60.6 ± 14.7 mL/min/1.73 m^2
[6]
  Allograft Loss: 0 number
  BPAR: 0 number
[7]; 12 solid organ transplant patients, five consecutive days of therapy
  Effect on trough levels of tacrolimus and cyclosporine: did not affect
[7]; liver transplant recipients, co-administration over one year
  Effect on serum trough levels of tacrolimus: does not influence
Adverse event monitoring
  AE: Abdominal discomfort: 2 (8.0) number (%)
  AE: Arthralgia: 0 (0.0) number (%)
  AE: COVID-19: 2 (8.0) number (%)
  AE: Constipation: 0 (0.0) number (%)
  AE: Diarrhea: 0 (0.0) number (%)
  AE: Headache: 1 (4.0) number (%)
  AE: Hypertension: 0 (0.0) number (%)
  AE: Hypoglycemia: 0 (0.0) number (%)
  AE: Myalgia: 1 (4.0) number (%)
  AE: Nausea, vomiting: 0 (0.0) number (%)
  AE: Productive cough, sputum: 0 (0.0) number (%)
  AE: Pyrexia: 1 (4.0) number (%)
  AE: Toothache: 1 (4.0) number (%)
  AE: Upper respiratory tract infection: 1 (4.0) number (%)
  AE: Urinary tract infection: 1 (4.0) number (%)
  AE: Vertigo: 1 (4.0) number (%)
  Participants with AEs: 7 (28.0) number (%)
  Participants with SAEs: 0 (0.0) number (%)
  Withdrawal due to AEs: 0 (0.0) number (%)
  Overall incidence of AEs: 28.0%

## C=CC[C@@H]1/C=C(\C)C[C@H](C)C[C@H](OC)[C@H]2O[C@@](O)(C(=O)C(=O)N3CCCC[C@H]3C(=O)O[C@H](/C(C)=C/[C@@H]3CC[C@@H](O)[C@H](OC)C3)[C@H](C)[C@@H](O)CC1=O)[C@H](C)C[C@@H]2OC [Tacrolimus, tacrolimus]
[4]; [9]
  Tacrolimus trough level: 5.0 ± 1.6 ng/mL
[4]; [10]
  Tacrolimus trough level: 5.3 ± 1.3 ng/mL
[4]; [11]
  Tacrolimus trough level: 6.3 ± 1.9 ng/mL
[4]; [12]
  Tacrolimus trough level: 5.5 ± 1.6 ng/mL
[4]; [13]
  Tacrolimus trough level: 5.4 ± 1.4 ng/mL
[4]; [14]
  Tacrolimus trough level: 5.5 ± 1.6 ng/mL
[4]; [15]
  Tacrolimus trough level: 5.7 ± 2.4 ng/mL
[4]; [16]
  Tacrolimus trough level: 5.8 ± 2.0 ng/mL
[2]
  Time in therapeutic range (TTR), P-CAB vs PPI group: comparable between the two groups

## CNCc1cc(-c2ccccc2F)n(S(=O)(=O)c2cccnc2)c1 [vonoprazan]
[8]; KTRs, switching from rabeprazole to vonoprazan, two retrospective studies
  Effect on tacrolimus concentration: increased
[8]; conversion from rabeprazole to vonoprazan, regardless of CYP3A5 genotypes
  Effect on tacrolimus trough levels: did not alter
